The results in this text go back to ChEMBL document CHEMBL1177690, “Target-specific control of lymphoid-specific protein tyrosine phosphatase (Lyp) activity” (Bioorg Med Chem, 2010).

pIC50: −log10 of the molar value.

Usually pIC50 stands for the IC50 on a negative log10 scale, so that one unit is a factor of ten. A high value points to a low IC50.

A short description of this assay: Inhibition of Lyp CCPGCC mutant expressed in Escherichia coli […].

`O=C(O)c1ccccc1-c1c2ccc(=O)c([As]3SCCS3)c-2oc2c([As]3SCCS3)c(O)ccc12` showed a negative-log IC50 (pIC50) of 6.20.
